Data set [1] deals with T1, α1G T-type calcium channel (Homo sapiens, UniProt O43497).
T1 construct: host or cells: HEK293
The experiment in a line: T-type calcium channel activity in HEK293 cells by electrophysiological whole cell patch clamp method. Type of data set: cell-based. The note with it: HEK293 cells expressing α1G. Here is the method: The selected compounds were used in a second assay for T-type calcium channel inhibiting activity using electrophysiological whole cell patch clamp method, wherein mammal HEK293 cell lines (originated from human kidney carcinoma cells) which specifically expresses α1G of T-type calcium channel was used for the second assay. […] 10% Fetal bovine serum (FBS) and 1% penicillin/streptomycin (v/v) were added to Dulbecco's modified Eagle's medium (DMEM), to be used as a media solution. The cells were cultured in incubator under the wet condition of 95% air/5% CO2 and temperature of 36.5° C. The media solution was refreshed every 3 or 4 days, and the cells were sub-cultured every week. Only the cells which express α1G T-type calcium channel were cultured using G-418 (0.5 mg/ml) solution. The recording to the cells used in the T-type calcium channel activity analysis was conducted at 2-7 days after the cells were culturing on a cover slip coated with poly-L-lysine (0.5 mg/ml) when conducting every sub-culture. For analysis at a single cell level, the T-type calcium channel current was measured by an electrophysiological whole cell patch clamp method using EPC-9 amplifier (HEKA, German). […] Thereafter, the cell membrane potential was fixed to −100 mV, and then the inward current due to the T-type calcium channel activity when […] to −30 mV (50 ms duration) was measured every 10 seconds. […]
(Patch clamp records ionic current or voltage across a cell membrane.)

In data set [2] the target is T1, α1G T-type calcium channel. As to the kind of experiment: Assay for % inhibiting activity against T-type calcium channel using FDSS6000. Type of data set: cell-based. The note with it: HEK293, 10 μM, HEK293 cells expressing α1G. Here is the method: In the present invention, in order to search an efficient inhibitor against T-type calcium channel, a primary assay for T-type calcium channel inhibiting activity was conducted by a high-efficient assay using FDSS6000, wherein mammal HEK293 cell lines (originated from human kidney carcinoma cells) which specifically expresses α1G of T-type calcium channel was used for primary assay. Through the primary assay, compounds which show meaningful inhibition effects were selected. The selected compounds were used in a second assay for T-type calcium channel inhibiting activity using electrophysiological whole cell patch clamp method, wherein mammal HEK293 cell lines (originated from human kidney carcinoma cells) which specifically expresses α1G of T-type calcium channel was used for the second assay.
At 12-24 hours before being used for this assay, cells of HEK293 cell line (α1G cell line: KCTC 10519BP, Korean Collection for Type Cultures), which stably express α1G T-type calcium channel and Kir2.1, were sub-cultured in a poly-L-lysine treated 96-well plate with the density of 4×10^4 per a well using a 96-well cell dispenser (Titertek). On the of assay, the 96-well plate to which the cells were attached were washed three times with HEPES buffer solution (150 mM of NaCl, 5 mM of KCl, 1 mM of MgCl2, 2 mM of CaCl2, 10 mM of HEPES, 10 mM of glucose; pH 7.4) using a 96-well plate automatic washing device (Bio Tek), then reacted with HEPES buffer solution containing 5 μM fluo-3/AM and 0.001% Pluronic F-127 under room temperature for 1 hour, to label with fluorescent dye, and then further washed two times with HEPES buffer solution.
Thereafter, at 10 minutes before the measurement using device FDSS6000, a washing with HEPES buffer solution containing 10 mM CaCl2 was conducted once more, and the final volume was adjusted to 81 μl. Besides the above 96-well plate containing the cells, additional two drug 96-well plates were provided, wherein the 96-well plates contain inhibiting drug and KCl (final concentration: 75 mM) for activating T-type calcium channel, respectively. Since most of cell-based HTS devices are equipped with a liquid application system for injection of drug, but have no liquid sucking system, the inhibiting drug to be tested and KCl were respectively provided at the five-times higher concentration in 10 mM CaCl2 HEPES buffer solution at the amount of 27 μl, diluted five-times at the final cell plate volume of 135 μl, and then used in this test. The concrete method of measurement using FDSS6000 was as follows: After recording the reference value of 20 seconds, the change of intracellular Ca^2+ concentration which induced by treatment of the inhibiting drug to be tested for 75 seconds followed by administration of KCl was measured, wherein the percentage (%) inhibition effect of the test drug, through estimating the area of ratio value of 340/380 in the control without treatment of the test drug as 100%. As a reference drug, mibefradil was used.
For accurate calcium-imagination, the light source of 4 xenon lamps in FDSS6000 were radiated to make the cells exposed selectively to the excitation wavelength (340 nm and 380 nm) by computer-controlled filter wheel. Data was obtained at interval of each 1.23 second. The emitter fluorescence light inflowed through long-pass filter was obtained as an average 340/380 ratio value for each well in the 96-wells by using CCD camera and digital fluorescence analyzer in FDSS6000. All image data and analyses were obtained by using FDSS6000-exclusive program provide from Hamamatsu Photonics.

[3] abbreviates: Table 4 (Chemical Formula 3 series).
[4] abbreviates: Table 3 (Chemical Formula 2 series).

T1 sequence (O43497 whole entry): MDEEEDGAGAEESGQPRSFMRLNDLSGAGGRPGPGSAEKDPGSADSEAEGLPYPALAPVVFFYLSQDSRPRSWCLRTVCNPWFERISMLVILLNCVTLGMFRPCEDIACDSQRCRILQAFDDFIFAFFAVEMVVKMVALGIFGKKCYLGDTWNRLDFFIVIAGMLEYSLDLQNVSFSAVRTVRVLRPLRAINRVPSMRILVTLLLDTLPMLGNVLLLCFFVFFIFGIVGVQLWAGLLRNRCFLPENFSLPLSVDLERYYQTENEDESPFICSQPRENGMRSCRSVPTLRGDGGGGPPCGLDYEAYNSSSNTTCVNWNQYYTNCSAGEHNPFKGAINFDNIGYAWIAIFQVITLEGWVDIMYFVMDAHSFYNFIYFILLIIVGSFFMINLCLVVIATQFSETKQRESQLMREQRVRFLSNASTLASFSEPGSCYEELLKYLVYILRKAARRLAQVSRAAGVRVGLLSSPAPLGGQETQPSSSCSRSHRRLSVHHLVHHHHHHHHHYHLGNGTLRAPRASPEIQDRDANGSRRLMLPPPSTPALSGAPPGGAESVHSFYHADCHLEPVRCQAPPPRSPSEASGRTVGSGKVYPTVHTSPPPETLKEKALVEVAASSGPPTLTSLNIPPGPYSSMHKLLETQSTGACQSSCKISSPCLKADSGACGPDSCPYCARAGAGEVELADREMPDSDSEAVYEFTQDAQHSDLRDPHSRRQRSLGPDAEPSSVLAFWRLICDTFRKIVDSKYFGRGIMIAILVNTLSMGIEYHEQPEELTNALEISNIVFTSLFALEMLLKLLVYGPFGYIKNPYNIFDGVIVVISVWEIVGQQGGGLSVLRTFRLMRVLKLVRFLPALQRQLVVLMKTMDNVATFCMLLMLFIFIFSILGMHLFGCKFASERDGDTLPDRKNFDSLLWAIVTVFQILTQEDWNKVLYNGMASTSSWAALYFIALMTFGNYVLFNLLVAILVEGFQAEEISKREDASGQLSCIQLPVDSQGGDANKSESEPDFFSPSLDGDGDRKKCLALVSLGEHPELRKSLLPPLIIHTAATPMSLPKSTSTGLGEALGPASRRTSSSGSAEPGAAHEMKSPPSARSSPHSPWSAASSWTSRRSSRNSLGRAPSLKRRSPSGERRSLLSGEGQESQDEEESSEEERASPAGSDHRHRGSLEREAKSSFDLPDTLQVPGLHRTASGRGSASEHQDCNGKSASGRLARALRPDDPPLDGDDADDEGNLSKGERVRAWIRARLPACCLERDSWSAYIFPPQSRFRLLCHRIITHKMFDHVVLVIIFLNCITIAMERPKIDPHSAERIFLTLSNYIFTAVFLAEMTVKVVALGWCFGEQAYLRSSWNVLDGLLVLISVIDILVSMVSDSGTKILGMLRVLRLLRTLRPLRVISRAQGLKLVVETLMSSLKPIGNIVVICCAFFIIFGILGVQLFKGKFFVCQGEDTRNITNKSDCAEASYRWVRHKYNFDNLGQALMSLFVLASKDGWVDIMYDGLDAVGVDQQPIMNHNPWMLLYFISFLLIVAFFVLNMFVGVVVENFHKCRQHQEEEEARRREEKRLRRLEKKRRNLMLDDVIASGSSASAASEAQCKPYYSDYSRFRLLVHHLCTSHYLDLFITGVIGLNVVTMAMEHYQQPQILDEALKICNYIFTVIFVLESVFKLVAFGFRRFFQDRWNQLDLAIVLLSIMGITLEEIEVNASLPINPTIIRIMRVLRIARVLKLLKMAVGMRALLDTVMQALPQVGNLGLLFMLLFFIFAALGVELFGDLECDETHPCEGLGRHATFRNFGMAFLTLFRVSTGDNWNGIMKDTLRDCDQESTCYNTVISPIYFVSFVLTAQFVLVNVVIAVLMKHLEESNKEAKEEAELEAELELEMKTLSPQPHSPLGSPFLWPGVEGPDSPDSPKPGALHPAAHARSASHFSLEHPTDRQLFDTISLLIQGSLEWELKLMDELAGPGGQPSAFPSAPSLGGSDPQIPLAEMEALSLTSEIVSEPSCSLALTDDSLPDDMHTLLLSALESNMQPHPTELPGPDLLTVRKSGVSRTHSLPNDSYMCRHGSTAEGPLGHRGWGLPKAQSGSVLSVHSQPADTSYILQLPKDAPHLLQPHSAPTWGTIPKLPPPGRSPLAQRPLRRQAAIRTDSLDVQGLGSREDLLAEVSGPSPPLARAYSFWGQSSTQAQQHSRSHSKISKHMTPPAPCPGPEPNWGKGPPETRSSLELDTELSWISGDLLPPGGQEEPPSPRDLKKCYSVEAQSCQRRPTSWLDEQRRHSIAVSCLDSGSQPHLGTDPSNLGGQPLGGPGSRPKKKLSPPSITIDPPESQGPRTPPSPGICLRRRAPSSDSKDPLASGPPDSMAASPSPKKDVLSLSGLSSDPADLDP

In general, IC50 refers to the concentration that gives 50% inhibition. On to `NC(N)=Nc1nc(CC(=O)Nc2cc(C(F)(F)F)cc(C(F)(F)F)c2)cs1` [drawing 11], for which the IC50 in data set [1] was 780 ± 80 nM. The inhibition is the relative decrease from the control value, in per cent. In general, melting point refers to the temperature of the solid-liquid transition. `Cl.NC(N)=Nc1nc(-c2ccc(F)cc2)cs1` [KHG24025, 2-(4-(4-fluorophenyl)thiazole-2-yl)guanidine hydrochloride] came in with a melting point of 223.3 °C. In addition, the inhibition at 10 µM in data set [2] (setting [3]) was 19.9%.

`CCOc1ccc(NC(=O)Cc2csc(N=C(N)N)n2)cc1.Cl` [KHG23192, N-(4-ethoxyphenyl)-2-(2-(diaminomethyleneamino)thiazole-4-yl)acetamide hydrochloride] had a melting point of 242.1 to 242.6 °C. Besides, the inhibition at 10 µM in data set [2] (setting [4]) worked out at 16.8%.

`Cl.NC(N)=Nc1nc(CC(=O)Nc2cc(Cl)ccc2F)cs1` [KHG23172, N-(5-chloro-2-fluorophenyl)-2-(2-(diaminomethyleneamino)thiazole-4-yl)acetamide hydrochloride] yielded a melting point of 209.3 to 210 °C. For the same compound, the inhibition at 10 µM in data set [2] (setting [4]) amounted to 27.6%. In turn, `Cl.NC(N)=Nc1nc(-c2ccc3c(c2)OCC(=O)N3)cs1` [KHG24037, 2-(4-(3-oxo-3,4-dihydro-2H-benzo[b][1,4]oxazine-7-yl)thiazole-2-yl)guanidine hydrochloride] yielded a melting point of 233.3 °C. Also, the inhibition at 10 µM in data set [2] (setting [3]) was 21.2%. Turning to `Cc1ccc(NC(=O)Cc2csc(N=C(N)N)n2)cc1.Cl` [KHG23175, 2-(2-(diaminomethyleneamino)thiazole-4-yl)-N-p-tolylacetamide hydrochloride], the melting point lay within 236.2 to 238.3 °C. In addition, the inhibition at 10 µM in data set [2] (setting [4]) was 23.8%. The like results for `Cc1ccc(CNC(=O)Cc2csc(N=C(N)N)n2)cc1.Cl` [KHG23187, 2-(2-(diaminomethyleneamino)thiazole-4-yl)-N-(4-methylbenzyl)acetamide hydrochloride] were, in that order, 187.9 to 188.6 °C and 21.4%. `Cl.NC(N)=Nc1nc(-c2ccc(-c3ccccc3)cc2)cs1` [KHG24038, 2-(4-(biphenyl-4-yl)thiazole-2-yl)guanidine hydrochloride] yielded a melting point of 300.3 °C. Moreover, in data set [2] (setting [3]), the inhibition at 10 µM was determined as 14.2%.

`Br.COc1ccccc1-c1csc(N=C(N)N)n1` [KHG24374, 2-(4-(2-methoxyphenyl)thiazole-2-yl)guanidine hydrobromide] returned a melting point of 245.4 °C. Besides, the inhibition at 10 µM in data set [2] (setting [3]) amounted to 20.7%. For the compound `Br.COc1ccc(-c2csc(N=C(N)N)n2)c(OC)c1` [KHG24376, 2-(4-(2,4-dimethoxyphenyl)thiazole-2-yl)guanidine hydrobromide], the melting point is 213 °C. The inhibition at 10 µM in data set [2] (setting [3]) worked out at 16.1%. The like results for `Br.COc1ccc(-c2csc(N=C(N)N)n2)c(F)c1` [KHG24377, 2-(4-(2-fluoro-4-methoxyphenyl)thiazole-2-yl)guanidine hydrobromide] were, in that order, 202.6 °C and 20.2%. As for `NC(N)=Nc1nc(CC(=O)Nc2cc(Cl)cc(Cl)c2)cs1`, the half-inhibitory concentration (IC50) in data set [1] is 310 ± 220 nM. As to `CCc1ccc(NC(=O)Cc2csc(N=C(N)N)n2)cc1.Cl` [KHG23186, 2-(2-(diaminomethyleneamino)thiazole-4-yl)-N-(4-ethylphenyl)acetamide hydrochloride], the melting point was in the range of 228 to 229.1 °C. The inhibition at 10 µM in data set [2] (setting [4]) came to 29.8%.

(Values after patent US8143296B2, “Thiazole-based compound and inhibitor of T-type calcium channel containing the same” (Korea Institute of Science and Technology, priority 2006, dated 2012).)
